Non-standard residues stand in square brackets, D forms with d. Residues, ends and D or L forms follow the SMILES beside them. *: point of attachment. Hpla = O=C(O)[C@@H](O)Cc1ccc(O)cc1; Hica(2S) = CC(C)C[C@H](O)C(=O)O; X1 = C[C@@H](O)[C@H](O*)C(=O)O

For this test, the system named is Locusta migratoria. The experiment in a line: Myotropic effect was assessed in vitro, using an isometric muscle contraction bioassay employing isolated hindguts from the locust Locusta migratoria at 1 uM/L. The class given is functional, Muscle tissue.
In the case of H-RYLPT-OH [PROCTOLIN], the Isometric contraction worked out at 100%.
As to `CC(C)C[C@H](NC(=O)[C@H](Cc1ccc(O)cc1)NC(=O)[C@@H](N)CCCN=C(N)N)C(=O)N1CCC[C@H]1C(=O)O[C@H](C(=O)O)[C@@H](C)O.O=C(O)C(F)(F)F.O=C(O)C(F)(F)F.O=C(O)C(F)(F)F` (H-RYLP-X1), the Isometric contraction was found to be 106%.
Consider `CC(C)C[C@H](OC(=O)[C@H](Cc1ccc(O)cc1)NC(=O)[C@@H](N)CCCN=C(N)N)C(=O)N1CCC[C@H]1C(=O)N[C@H](C(=O)O)[C@@H](C)O.O=C(O)C(F)(F)F.O=C(O)C(F)(F)F.O=C(O)C(F)(F)F` (H-RY[Hica(2S)]PT-OH), for which the Isometric contraction is reported as 30%.
Under `CC(C)C[C@H](NC(=O)[C@H](Cc1ccc(O)cc1)OC(=O)[C@@H](N)CCCN=C(N)N)C(=O)N1CCC[C@H]1C(=O)N[C@H](C(=O)O)[C@@H](C)O.O=C(O)C(F)(F)F.O=C(O)C(F)(F)F.O=C(O)C(F)(F)F` (H-R[Hpla]LPT-OH) stands 66%; under `CC(C)C[C@H](OC(=O)[C@H](Cc1ccc(O)cc1)NC(=O)[C@@H](N)CCCN=C(N)N)C(=O)N1CCC[C@H]1C(=O)O[C@H](C(=O)O)[C@@H](C)O.O=C(O)C(F)(F)F.O=C(O)C(F)(F)F.O=C(O)C(F)(F)F` (H-RY[Hica(2S)]P-X1), 27%.

For the origin of these results see ChEMBL document CHEMBL1135149, “Syntheses of depsipeptide analogues of the insect neuropeptide proctolin” (2002).
